Target: T1, human Nav1.6 (hNav1.6) (Homo sapiens, UniProt Q9UQD0)
T1 construct: expressed in transfected cells; host or cells: HEK-293 (G418 selection)
Experiment: Modulation of late sodium current (INaL), PatchXpress electrophysiology
Assay type: cell-based
Conditions: HEK293; compound at 1 μM; HEK-293 cells expressing recombinant hNav1.6; late current evoked by 300 nM ATX-II; read-out: INaL v1.6 (1 μM, % Inhibition)
Method: Functional characterization of exemplary compounds to modulate INaL expressed by the Nav1.6 voltage-gated sodium channel was accomplished using the PatchXpress™ high throughput electrophysiology platform (Molecular Devices, Sunnyvale, Calif.). HEK-293 cells expressing recombinant, human Nav1.6 (hNav1.6) were grown in DMEM/high-glucose Dulbecco's modified, 10% FBS, 2 mM sodium pyruvate, 10 mM HEPES and 400 μg/mL G418. Cells were grown to 50%-80% confluency prior to harvesting. Trypsinized cells were washed, allowed to recover for 1 hour and then resuspended in extracellular recording solution at a concentration of 1×10^6 cells/ml. The onboard liquid handling facility of the PatchXpress was used for dispensing cells and applying test compounds. Nav late currents were evoked by the application of 300 nM ATX-II. INaL was evoked by depolarizing pulses to 0 mV for 200 ms from a non-inactivating holding potential (e.g., −120 mV) at a frequency of 0.1 Hz. INaL amplitude and stability were determined by analyzing the mean current amplitude over the final 20 ms of the test pulse. Following steady state block with exemplary compounds (e.g., as described herein), a Na^+ free solution containing an impermeant cation (e.g., Choline or NDMG) was added to confirm the identify of the sodium current. Percent steady-state inhibition of INaL was calculated as: [(INaL_compound)/(INaL_control)]*100, where INaL_compound and INaL_control represent INaL recorded in the presence or absence of compound, respectively.
Results from this assay relating to percent inhibition of INaL at hNav1.6 (measured using procedure similar to described above but using HEK-293 cells expressing recombinant, human Nav1.6 (hNav1.6) at 1 μM are summarized in Table 1 below. In this table, “A” indicates inhibition of less than 30%; “B” indicates inhibition of between about 30% to about 70%; and “C” indicates inhibition of greater than 70%.

T1 sequence (Q9UQD0 whole entry): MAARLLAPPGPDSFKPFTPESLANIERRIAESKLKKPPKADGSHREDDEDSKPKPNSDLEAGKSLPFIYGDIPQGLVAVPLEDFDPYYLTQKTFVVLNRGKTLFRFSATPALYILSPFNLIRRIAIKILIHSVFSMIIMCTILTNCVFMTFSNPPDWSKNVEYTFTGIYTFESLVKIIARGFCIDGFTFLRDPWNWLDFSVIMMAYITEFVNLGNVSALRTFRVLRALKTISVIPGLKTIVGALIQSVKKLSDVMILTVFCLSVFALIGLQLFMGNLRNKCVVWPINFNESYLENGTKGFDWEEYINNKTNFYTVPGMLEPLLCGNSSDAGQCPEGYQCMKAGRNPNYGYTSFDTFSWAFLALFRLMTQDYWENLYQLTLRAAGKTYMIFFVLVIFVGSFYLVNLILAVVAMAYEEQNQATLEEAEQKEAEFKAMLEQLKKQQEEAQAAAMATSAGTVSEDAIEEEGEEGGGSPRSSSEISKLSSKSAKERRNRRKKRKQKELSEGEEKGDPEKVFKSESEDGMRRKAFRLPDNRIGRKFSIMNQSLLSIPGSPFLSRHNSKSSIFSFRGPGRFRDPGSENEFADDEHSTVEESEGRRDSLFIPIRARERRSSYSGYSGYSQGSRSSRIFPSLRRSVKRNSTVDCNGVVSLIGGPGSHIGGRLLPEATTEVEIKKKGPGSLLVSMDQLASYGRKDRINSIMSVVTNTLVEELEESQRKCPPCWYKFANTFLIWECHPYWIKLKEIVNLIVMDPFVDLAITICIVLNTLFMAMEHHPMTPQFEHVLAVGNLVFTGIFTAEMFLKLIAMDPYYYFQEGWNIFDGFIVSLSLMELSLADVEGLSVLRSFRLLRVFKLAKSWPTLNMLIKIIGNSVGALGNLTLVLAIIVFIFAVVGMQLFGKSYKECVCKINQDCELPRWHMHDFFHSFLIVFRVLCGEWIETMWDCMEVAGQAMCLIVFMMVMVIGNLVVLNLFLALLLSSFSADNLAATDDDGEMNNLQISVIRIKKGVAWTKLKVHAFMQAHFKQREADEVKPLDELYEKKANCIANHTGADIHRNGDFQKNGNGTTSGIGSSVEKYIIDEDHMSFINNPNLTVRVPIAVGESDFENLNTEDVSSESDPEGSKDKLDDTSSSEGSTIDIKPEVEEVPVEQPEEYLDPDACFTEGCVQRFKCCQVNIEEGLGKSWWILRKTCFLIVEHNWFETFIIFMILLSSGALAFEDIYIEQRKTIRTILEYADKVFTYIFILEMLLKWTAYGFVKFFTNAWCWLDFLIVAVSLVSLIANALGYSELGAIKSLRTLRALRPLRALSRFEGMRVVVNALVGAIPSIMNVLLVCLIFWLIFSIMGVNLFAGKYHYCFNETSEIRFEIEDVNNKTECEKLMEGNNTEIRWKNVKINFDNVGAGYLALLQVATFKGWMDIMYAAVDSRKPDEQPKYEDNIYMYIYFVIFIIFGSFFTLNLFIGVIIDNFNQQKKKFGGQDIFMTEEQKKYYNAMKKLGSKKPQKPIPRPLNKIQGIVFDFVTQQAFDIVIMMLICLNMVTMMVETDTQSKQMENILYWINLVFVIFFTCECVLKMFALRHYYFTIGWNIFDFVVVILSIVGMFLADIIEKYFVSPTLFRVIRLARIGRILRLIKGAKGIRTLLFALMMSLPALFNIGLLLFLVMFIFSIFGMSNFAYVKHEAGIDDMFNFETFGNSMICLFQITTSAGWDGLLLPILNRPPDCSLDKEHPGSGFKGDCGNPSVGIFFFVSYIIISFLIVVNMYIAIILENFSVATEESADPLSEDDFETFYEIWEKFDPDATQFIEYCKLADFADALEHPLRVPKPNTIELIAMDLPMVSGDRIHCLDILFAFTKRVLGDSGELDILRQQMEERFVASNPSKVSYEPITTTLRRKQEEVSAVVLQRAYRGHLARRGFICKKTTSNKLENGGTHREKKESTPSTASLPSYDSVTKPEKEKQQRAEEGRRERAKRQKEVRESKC

inhibition at 1 µM [%] | SMILES
< 30 | FC(F)(F)Oc1ccc(-c2ccn3cncc3c2)cc1 [Compound 1]
< 30 | FC(F)(F)Oc1ccc(-c2ccn3cnc(C(F)(F)F)c3c2)cc1 [Compound 2]
< 30 | Cc1cc(OC(F)(F)F)ccc1-c1cnn2cncc2c1 [Compound 5, 3-[2-methyl-4-(trifluoromethoxy)phenyl]imidazo[1,5-b]pyridazine]
< 30 | Cc1cc(OC(F)(F)F)ccc1-c1cnn2cnc(C(F)(F)F)c2c1 [Compound 6]
< 30 | FC(F)(F)Oc1ccc(-c2cc3cncn3cn2)cc1 [Compound 7, 7-[4-(trifluoromethoxy)phenyl]imidazo[1,5-c]pyrimidine]
< 30 | Fc1cc(-c2cc3cncn3cn2)cnc1OCC(F)(F)F [Compound 10, 7-[5-fluoro-6-(2,2,2-trifluoroethoxy)-3-pyridyl]imidazo[1,5-c]pyrimidine]
30 to 70 | C[C@H](Oc1ncc(-c2cc3c(C(F)(F)F)ncn3cn2)cc1F)C(F)(F)F [Compound 18]
< 30 | C[C@H](Oc1ncc(-c2cc3c(C(F)F)ncn3cn2)cc1F)C(F)(F)F [Compound 20]
30 to 70 | CC(C)(Oc1ncc(-c2cc3c(C(F)F)ncn3cn2)cc1F)C(F)(F)F [Compound 21]
> 70 | COCc1ncn2cnc(-c3cnc(O[C@H](C)C(F)(F)F)c(F)c3)cc12 [Compound 25]
< 30 | COCc1ncn2cnc(-c3cnc(OC(C)(C)C(F)(F)F)c(F)c3)cc12 [Compound 27]

The next lines start with the compound.

SMILES | inhibition at 1 µM [%]
FC(F)(F)Oc1ccc(-c2ccn3cnc(C(F)(F)F)c3n2)cc1 [Compound 4] | 30 to 70
FC(F)(F)Oc1ccc(-c2cc3c(C(F)(F)F)ncn3cn2)cc1 [Compound 8] | > 70
Cc1cc(OC(F)(F)F)ccc1-c1cc2cncn2cn1 [Compound 9, 7-[2-methyl-4-(trifluoromethoxy)phenyl]imidazo[1,5-c]pyrimidine] | < 30
C[C@H](Oc1ncc(-c2cc3cncn3cn2)cc1F)C(F)(F)F [Compound 11, 7-[5-fluoro-6-[(1S)-2,2,2-trifluoro-1-methyl-ethoxy]-3-pyridyl]imidazo[1,5-c]pyrimidine] | 30 to 70
C[C@@H](Oc1ncc(-c2cc3cncn3cn2)cc1F)C(F)(F)F [Compound 12, 7-[5-fluoro-6-[(1R)-2,2,2-trifluoro-1-methyl-ethoxy]-3-pyridyl]imidazo[1,5-c]pyrimidine] | < 30
CC(C)(Oc1ncc(-c2cc3cncn3cn2)cc1F)C(F)(F)F [Compound 13, 7-[5-fluoro-6-(2,2,2-trifluoro-1,1-dimethyl-ethoxy)-3-pyridyl]imidazo[1,5-c]pyrimidine] | 30 to 70
Cc1cc(OC(F)(F)F)ccc1-c1cc2c(C(F)(F)F)ncn2cn1 [Compound 14] | > 70
C[C@@H](Oc1ncc(-c2cc3c(C(F)(F)F)ncn3cn2)cc1F)C(F)(F)F [Compound 15] | 30 to 70
Fc1cc(-c2cc3c(C(F)(F)F)ncn3cn2)cnc1OCC(F)(F)F [Compound 16] | < 30
CC(C)(Oc1ncc(-c2cc3c(C(F)(F)F)ncn3cn2)cc1F)C(F)(F)F [Compound 17] | 30 to 70
C[C@@H](Oc1ncc(-c2cc3c(C(F)F)ncn3cn2)cc1F)C(F)(F)F [Compound 19] | < 30
Fc1cc(-c2cc3c(C(F)F)ncn3cn2)cnc1OCC(F)(F)F [Compound 22] | < 30
Cc1cc(OC(F)(F)F)ccc1-c1cc2c(C(F)F)ncn2cn1 [Compound 23] | < 30
COCc1ncn2cnc(-c3cnc(O[C@@H](C)C(F)(F)F)c(F)c3)cc12 [Compound 24] | < 30
COCc1ncn2cnc(-c3ccc(OC(F)(F)F)cc3)cc12 [Compound 26] | 30 to 70

From patent publication US11773099B2, “Compounds and their methods of use” (Praxis Precision Medicines, Inc., priority 2019, dated 2023)
